This is an account of results in patent US8716231B2, “Use of benzo-fused heterocycle sulfamide derivatives for the treatment of pain” (Janssen Pharmaceutica NV, priority 2005, dated 2014).

In series [1] the test system is Taxol®-induced mechanical allodynia. The experiment in a line: Taxol Induced Peripheral Neuropathy Model (pilot), Von Frey testing. As to conditions: Taxol 2 mg/kg i.p. days 1, 3, 5, 7 + HPMC vehicle; day 12 (baseline 16.42±2.14 g). It is filed as in vivo, Sprague-Dawley rats. How it is done: In addition, the compound's effects on spontaneous locomotor activity was measured.
The animals were housed in polycarbonate plastic cages, 2 animals per cage, at a temperature of 18-26° C., 30-70% humidity, 12-hour light/dark cycle, with food and water available ad libityum.
On days 1, 3, 5, and 7, the rats received an ip (intraperitoneal) injection of Taxol® (2 mg/kg).
Two behavioral tests were performed: measurement of tactile sensitivity and spontaneous locomotor activity. At baseline and on Days 5 and 12 post-Taxol® injection, the animals underwent Von Frey testing for mechanical allodynia (according to the procedure as described in Chaplan, S R, Bach, F W, Pogrel, J W, Chung, J M, Yaksh, T L. Quantitative assessment of tactile allodynia in the rat paw. J Neurosci Meth, 53:55-63, 1994). Tactile sensitivity (i.e. mechanical allodynia) was measured using calibrated filaments touched to the plantar surface of the affected limb to determine paw withdrawal threshold. Briefly, the rats were placed in a Plexiglas cage with a wire mesh bottom and allowed to acclimate for 10 minutes. Once the animals settled, the plantar surface of the right hind paw was touched with a 2.0 g von Frey filament. […] Data were analyzed using two-way ANOVA, one-way ANOVA and Dunnett's test, with statistical significance at p<0.05.

Regarding `CN(CC1COc2ccccc2O1)S(N)(=O)=O` (stereo not drawn), the melting point was in the range of 97 to 98 °C.

The molecule `NS(=O)(=O)NCC1CCc2ccccc2O1` (stereo not drawn) gave a melting point of 100 to 101 °C.

As to `NS(=O)(=O)NC[C@H]1COc2cc(Cl)c(Cl)cc2O1`, the melting point fell in the range of 119 to 121 °C.

`CN(C)S(=O)(=O)NCC1COc2ccccc2O1` (stereo not drawn) showed a melting point of 76 to 78 °C.

Consider `NS(=O)(=O)NCCC1COc2ccccc2O1` (stereo not drawn), for which the melting point fell in the range of 101 to 103 °C.

For `CC(=O)O[C@H]1C(=O)[C@@]2(C)[C@H]([C@H](OC(=O)c3ccccc3)[C@]3(O)C[C@H](OC(=O)[C@H](O)[C@@H](NC(=O)c4ccccc4)c4ccccc4)C(C)=C1C3(C)C)[C@]1(OC(C)=O)CO[C@@H]1C[C@@H]2O` [Taxol®, paclitaxel, reference compound], the “paw withdrawal threshold (mechanical allodynia)” value in series [1] was found to be 12.11 ± 4.92 g.
